According to patent publication EP4541796A1, “EXATECAN DERIVATIVES AND USE THEREOF” (Hangzhou Adcoris Biopharma Co., Ltd, priority 2022, dated 2024):
Where two headings read alike, the source gives them in different places.

Experiments:
[1] = system: breast adenocarcinoma cells SK-BR-3; test: In vitro inhibitory activity of compounds (small molecule toxins), CCK-8 cell growth assay; assay type: cell-based; settings: Homo sapiens; Inhibitory activity against SK-BR-3; small molecules, 72 h incubation
Description: (§1) Human esophageal cancer cells OE33, and human breast adenocarcinoma cells SK-BR-3 were cultured in RPMI1640 (Cellmax) containing 10% fetal bovine serum (Cellmax), respectively. Cells in the exponential growth phase were diluted to a concentration of 1×10^5cells/mL by culture medium and added to 96-well cell culture plates at 100µL per well, then incubated overnight in a 37°C incubator with 5% CO2. On the following day, the small molecules were diluted with culture medium to 10,000 nM, 2,000 nM, 400 nM, 80 nM, 16 nM, 3.2 nM, 0.64 nM, 0.13 nM, respectively, and the diluted compounds were added to 96-well cell culture plates at 2 µL per well, with three replicate wells set-up for each concentration, and for the negative and blank control groups, in which the compounds had not been added, 2 µL of dilution was added per well. After the addition, the plates were returned to the 37°C incubator with 5% CO2 to continue incubation for 72 h. After incubation, the cell culture plates were removed, and the culture medium was aspirated using a pipette. Then, 100µL of culture medium containing 10% CCK-8 was added to each well, and the plates were incubated at 37°C for 3 hours. After incubation, the plates were removed, kept in the dark, and placed in ELISAplate. Absorbance was measured at 630nm as the reference wavelength and 450nm as the test wavelength. The IC50 values (Tables 1-3) were calculated using the four-parameter logistic regression method in GraphPad, based on the absorbance values. DNA topoisomerase I inhibitor Dxd was used as positive control drug.

[2] = system: esophageal cancer cells OE33; test: as above; assay type: cell-based; settings: Homo sapiens
Description: as §1

[3] = Inhibitory activity against OE33, small molecules, 72 h incubation, read-out: IC50/nM
[4] = OE33 cells, read-out: IC50 values for inhibiting the growth of esophageal cancer cells

| SMILES | IC50 [1] [nM] | IC50 [2, 3] [nM] | IC50 [2, 4] [nM] |
| --- | --- | --- | --- |
| CC[C@@]1(O)C(=O)OCc2c1cc1n(c2=O)Cc2c-1nc1cc(F)c(C)c3c1c2[C@@H](NC(=O)NN)CC3 [Compound 1, Exatecan-N-aminourea] | 50 to 100 | 50 to 100 | – |
| CC[C@@]1(O)C(=O)OCc2c1cc1n(c2=O)Cc2c-1nc1cc(F)c(C)c3c1c2[C@@H](NC(=O)N(C)N)CC3 [Compound 2, Exatecan-N-methyl-N-aminourea] | – | < 50 | < 10 |
| CC[C@@]1(O)C(=O)OCc2c1cc1n(c2=O)Cc2c-1nc1cc(F)c(C)c3c1c2[C@@H](NC(=O)N(C)NC)CC3 [Compound 3, Exatecan-N',N-dimethylaminourea] | < 50 | < 50 | < 10 |
| CC[C@@]1(O)C(=O)OCc2c1cc1n(c2=O)Cc2c-1nc1cc(F)c(C)c3c1c2[C@@H](NC(=O)C(=O)NN)CC3 [Compound 4, Exatecan-N'-amino oxalyldiamine] | 50 to 100 | 50 to 100 | – |
| CC[C@@]1(O)C(=O)OCc2c1cc1n(c2=O)Cc2c-1nc1cc(F)c(C)c3c1c2[C@@H](NC(=O)C(=O)N(C)N)CC3 [Compound 5, Exatecan N'-amino-N-methyloxalyldiamine] | < 50 | 50 to 100 | – |
| CC[C@@]1(O)C(=O)OCc2c1cc1n(c2=O)Cc2c-1nc1cc(F)c(C)c3c1c2[C@@H](NC(=O)CNO)CC3 [Compound 6, 2-hydroxyaminoacetyl exatecan] | – | 50 to 100 | – |
| CC[C@@]1(O)C(=O)OCc2c1cc1n(c2=O)Cc2c-1nc1cc(F)c(C)c3c1c2[C@@H](NC(=O)CNOC)CC3 [Compound 7, 2-methoxyaminoacetyl exatecan] | – | < 50 | < 10 |
| CC[C@@]1(O)C(=O)OCc2c1cc1n(c2=O)Cc2c-1nc1cc(F)c(C)c3c1c2[C@@H](NC(=O)CONC)CC3 [Compound 8, 2-methylaminooxyacetyl exatecan] | < 50 | < 50 | < 10 |
| CC[C@@]1(O)C(=O)OCc2c1cc1n(c2=O)Cc2c-1nc1cc(F)c(C)c3c1c2[C@@H](NC(=O)CN(C)N)CC3 [Compound 9, 2-N-methyl-N-aminoacetyl exatecan] | – | < 50 | < 10 |
| CC[C@@]1(O)C(=O)OCc2c1cc1n(c2=O)Cc2c-1nc1cc(F)c(C)c3c1c2[C@@H](NC(=O)CN(C)NC)CC3 [Compound 10, 2-N-methyl-N-methylaminoacetyl exatecan] | – | 50 to 100 | – |
| CC[C@@]1(O)C(=O)OCc2c1cc1n(c2=O)Cc2c-1nc1cc(F)c(C)c3c1c2[C@@H](NC(=O)CN(C)O)CC3 [Compound 11, 2-N-methylhydroxyaminoacetyl exatecan] | – | 50 to 100 | – |
| CCONCC(=O)N[C@H]1CCc2c(C)c(F)cc3nc4c(c1c23)Cn1c-4cc2c(c1=O)COC(=O)[C@]2(O)CC [Compound 12, 2-ethoxyaminoacetyl exatecan] | – | 50 to 100 | – |
| CC[C@@]1(O)C(=O)OCc2c1cc1n(c2=O)Cc2c-1nc1cc(F)c(C)c3c1c2[C@@H](NC(=O)C1(N)COC1)CC3 [Compound 13, 3-aminooxetane-3-acetyl exatecan] | < 50 | < 50 | < 10 |
| CC[C@@]1(O)C(=O)OCc2c1cc1n(c2=O)Cc2c-1nc1cc(F)c(C)c3c1c2[C@@H](NC(=O)CO)CC3 [Dxd, reference compound] | < 50 | < 50 | – |
